This note sets out measurements from the supplement of paper PMC11616607.

For one experiment, the system named is Kuramochi. Kind of experiment: drug sensitivity score (DSS) from 5-point dose-response viability curve (DSS (area-under-curve based score)); higher = more sensitive (stronger growth inhibition or killing); extreme values may be limits of the assay. As to conditions: exposure time: 72 h; concentration range: 5 concentrations over 10,000-fold range. The gist of the method: (§1)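 Ovarian cancer and normal ovarian cell lines were tested in 384-well plates, with drugs dispensed acoustically (Echo 550) in DMSO or water at five concentrations covering a 10,000-fold range. After 1,500 cells per well were added, plates were incubated for 3 days at 37°C and 5% CO2, and viability was read by CellTiter-Glo luminescence on a PHERAstar FS. Breeze software gave a drug sensitivity score for each cell line and drug, where a higher score means greater sensitivity. A value of zero means no response.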
As for `COc1c(C)cnc(Cn2cnc3c(Cl)nc(N)nc32)c1C` [BIIB021], the drug sensitivity score worked out at 9.
`CO[C@@H]1[C@H](N(C)C(=O)c2ccccc2)C[C@H]2O[C@]1(C)n1c3ccccc3c3c4c(c5c6ccccc6n2c5c31)C(=O)NC4` [Midostaurin] registered a drug sensitivity score of 7.2.
Still for that read-out and setting: in the case of `COc1ccc(S(=O)(=O)Nc2cccnc2Nc2ccc(O)cc2)cc1` [ABT-751] it was 7.4; in that of `COc1cc2ncnc(Nc3cccc(Cl)c3F)c2cc1OC(=O)N1CCN(C)C[C@H]1C` [AZD3759], 0; in that of `C[C@H]1CN(C2COC2)CCN1c1ccc(Nc2cc(-c3ccnc(N4CCn5c(cc6c5CC(C)(C)C6)C4=O)c3CO)cn(C)c2=O)nc1` [GDC-0853], 0.
The same measure, in the same setting: in the case of `CCCOc1ccn2c(C(C)=O)cc(-c3ccccc3S(C)(=O)=O)c2c1` [GSK2801] it was 0.4.
Same read-out and setting: under `CC(C)N(CCCNC(=O)Nc1ccc(C(C)(C)C)cc1)C[C@H]1O[C@@H](n2cc(Br)c3c(N)ncnc32)[C@H](O)[C@@H]1O` [SGC0946] stands 0; under `Cc1ccc(-n2nc(C(C)(C)C)cc2NC(=O)Nc2ccc(OCCN3CCOCC3)c3ccccc23)cc1` [Doramapimod], 0.6.
In turn, `CO[C@@H](C)Cn1c(=O)n(C)c2cnc3ccc(-c4cncc(C(C)(C)O)c4)cc3c21` gave a drug sensitivity score of 8.3.
On the same count and under the same terms, in the case of `C[C@@H]1C[C@H]2[C@@H]3CCC4=CC(=O)C=C[C@]4(C)[C@@]3(F)[C@@H](O)C[C@]2(C)[C@@]1(O)C(=O)CO` [Dexamethasone] it was 0; in that of `CN1CCN(c2nc(C3=C(c4c[nH]c5ccccc45)C(=O)NC3=O)c3ccccc3n2)CC1` [Sotrastaurin], 0; in that of `Cc1cc(F)c(C(=O)Nc2cccc(-c3nncn3C(C)C)n2)cc1-n1cnc(C2CC2)c1` [Selonsertib], 0.
Same read-out and setting: under `O=C(/C=C\n1cnc(-c2cc(C(F)(F)F)cc(C(F)(F)F)c2)n1)NNc1ccccn1` [Verdinexor] stands 3.1.
As for `Cn1nnc2c(C(N)=O)ncn2c1=O` [Temozolomide], the drug sensitivity score came to 0.
Same read-out and setting: in the case of `NC(=O)N1CCC(CC(=O)N2CCC([C@H]3c4ncc(Br)cc4CCc4cc(Cl)cc(Br)c43)CC2)CC1` [Lonafarnib] it was 11; in that of `CCc1cnn2c(NCc3ccc[n+]([O-])c3)cc(N3CCCC[C@H]3CCO)nc12` [Dinaciclib], 13.1.
For `O=C(O)c1ccc(CN2CCC(CN[C@@H]3C[C@H]3c3ccccc3)CC2)cc1`, the drug sensitivity score came out at 0.
On the same count and under the same terms, in the case of `CN1CCN(c2ccc(C(=O)Nc3n[nH]c4ccc(Cc5cc(F)cc(F)c5)cc34)c(NC3CCOCC3)c2)CC1` [Entrectinib] it was 0; in that of `O=c1[nH]c(=O)n([C@H]2C[C@H](O)[C@@H](CO)O2)cc1C(F)(F)F` [Trifluridine], 0.
`CCOC(=O)C1=CCCC[C@H]1S(=O)(=O)Nc1ccc(F)cc1Cl` [Resatorvid] returned a drug sensitivity score of 0.
On the same count and under the same terms, in the case of `CN(Cc1cnc2nc(N)nc(N)c2n1)c1ccc(C(=O)N[C@@H](CCC(=O)O)C(=O)O)cc1` [Methotrexate] it was 13.
In turn, `CN1CCN(C2CCC(n3cc(-c4ccc(Oc5ccccc5)cc4)c4c(N)ncnc43)CC2)CC1` (stereo unspecified) returned a drug sensitivity score of 12.6.
In turn, `COc1cc2nccc(Oc3ccc(NC(=O)Nc4cc(C)on4)c(Cl)c3)c2cc1OC` [Tivozanib] yielded a drug sensitivity score of 1.7.
The same measure, in the same setting: under `C[C@H]1C[C@@H](n2c(Nc3ccc(OC(F)(F)F)cc3)nc3cc(CCC(=O)O)ccc32)CC(C)(C)C1` stands 0; under `CN1CCN(C2CCN(C(=O)Nc3cc(Oc4ccc(NC(=O)C5(C(=O)Nc6ccc(F)cc6)CC5)c(F)c4)ccn3)CC2)CC1` [Golvatinib], 0.8.
Still for that read-out and setting: under `Cc1cc([C@@H](C)Nc2ccccc2C(=O)O)c2nc(N3CCOCC3)cc(=O)n2c1` [AZD-6482] stands 6; under `CC1=C(/C=C/C(C)=C/C=C/C(C)=C/C(=O)O)C(C)(C)CCC1` [Tretinoin], 0.
The same measure, in the same setting: in the case of `CC[C@H](Nc1ncnc2[nH]cnc12)c1nc2cccc(F)c2c(=O)n1-c1ccccc1` [Idelalisib] it was 5.8; in that of `O=c1[nH]cc(F)c(=O)[nH]1` [Fluorouracil], 0.6.
`O=C(NOCCO)c1ccc2cncn2c1Nc1ccc(I)cc1F` [GDC-0623] gave a drug sensitivity score of 0.1.
Still for that read-out and setting: in the case of `CC(C)[C@H](C(=O)Nc1ccc(C(=O)NO)cc1)c1ccccc1` [AR-42] it was 9.5.

Another experiment deals with OV90. The description is as above. As to conditions: exposure time: 72 h; concentration range: 5 concentrations over 10,000-fold range. The method in brief: as §1
As to `COc1c(C)cnc(Cn2cnc3c(Cl)nc(N)nc32)c1C` [BIIB021], the drug sensitivity score was 18.5.
On the same count and under the same terms, under `CO[C@@H]1[C@H](N(C)C(=O)c2ccccc2)C[C@H]2O[C@]1(C)n1c3ccccc3c3c4c(c5c6ccccc6n2c5c31)C(=O)NC4` [Midostaurin] stands 12.7.
Still for that read-out and setting: under `COc1ccc(S(=O)(=O)Nc2cccnc2Nc2ccc(O)cc2)cc1` [ABT-751] stands 9.4; under `COc1cc2ncnc(Nc3cccc(Cl)c3F)c2cc1OC(=O)N1CCN(C)C[C@H]1C` [AZD3759], 0; under `C[C@H]1CN(C2COC2)CCN1c1ccc(Nc2cc(-c3ccnc(N4CCn5c(cc6c5CC(C)(C)C6)C4=O)c3CO)cn(C)c2=O)nc1` [GDC-0853], 0.
Same read-out and setting: under `CCCOc1ccn2c(C(C)=O)cc(-c3ccccc3S(C)(=O)=O)c2c1` [GSK2801] stands 0; under `CC(C)N(CCCNC(=O)Nc1ccc(C(C)(C)C)cc1)C[C@H]1O[C@@H](n2cc(Br)c3c(N)ncnc32)[C@H](O)[C@@H]1O` [SGC0946], 2.3; under `Cc1ccc(-n2nc(C(C)(C)C)cc2NC(=O)Nc2ccc(OCCN3CCOCC3)c3ccccc23)cc1` [Doramapimod], 1.5.
`CO[C@@H](C)Cn1c(=O)n(C)c2cnc3ccc(-c4cncc(C(C)(C)O)c4)cc3c21` had a drug sensitivity score of 11.9.
Still for that read-out and setting: under `C[C@@H]1C[C@H]2[C@@H]3CCC4=CC(=O)C=C[C@]4(C)[C@@]3(F)[C@@H](O)C[C@]2(C)[C@@]1(O)C(=O)CO` [Dexamethasone] stands 0; under `CN1CCN(c2nc(C3=C(c4c[nH]c5ccccc45)C(=O)NC3=O)c3ccccc3n2)CC1` [Sotrastaurin], 0; under `Cc1cc(F)c(C(=O)Nc2cccc(-c3nncn3C(C)C)n2)cc1-n1cnc(C2CC2)c1` [Selonsertib], 0.1.
The molecule `O=C(/C=C\n1cnc(-c2cc(C(F)(F)F)cc(C(F)(F)F)c2)n1)NNc1ccccn1` [Verdinexor] registered a drug sensitivity score of 5.1.
The molecule `Cn1nnc2c(C(N)=O)ncn2c1=O` [Temozolomide] had a drug sensitivity score of 0.
Same read-out and setting: under `NC(=O)N1CCC(CC(=O)N2CCC([C@H]3c4ncc(Br)cc4CCc4cc(Cl)cc(Br)c43)CC2)CC1` [Lonafarnib] stands 15.8.
